From ChEMBL document CHEMBL3112568, “Synthesis, antifungal activities and molecular docking studies of novel 2-(2,4-difluorophenyl)-2-hydroxy-3-(1H-1,2,4-triazol-1-yl)propyl dithiocarbamates” (2014)
In brackets after ≈: the same amount, converted by molar mass.

What was measured:
Type in all cases: functional
Candida parapsilosis = test: Antifungal activity against Candida parapsilosis by micro-broth dilution method; details: Lodderomyces parapsilosis
Nannizzia gypsea = test: Antifungal activity against Microsporum gypseum by micro-broth dilution method
Trichophyton rubrum = test: Antifungal activity against Trichophyton rubrum by micro-broth dilution method
Aspergillus fumigatus = test: Antifungal activity against Aspergillus fumigatus by micro-broth dilution method
Candida albicans [1] = test: Antifungal activity against Candida albicans Y0109 after 24 hrs by micro-broth dilution method; details: Y0109, 24 h
Candida albicans [2] = test: Antifungal activity against Candida albicans SC5314 after 24 hrs by micro-broth dilution method; details: SC5314, 24 h
Cryptococcus neoformans = test: Antifungal activity against Cryptococcus neoformans after 72 hrs by micro-broth dilution method
Nakaseomyces glabratus = test: Antifungal activity against Candida glabrata by micro-broth dilution method

Structure (SMILES) | MIC80 (Candida parapsilosis) [µg/mL] | MIC80 (Nannizzia gypsea) [µg/mL] | MIC80 (Trichophyton rubrum) [µg/mL] | MIC80 (Aspergillus fumigatus) [µg/mL] | MIC80 (Candida albicans [1]) [µg/mL] | MIC80 (Candida albicans [2]) [µg/mL] | MIC80 (Cryptococcus neoformans) [µg/mL] | MIC80 (Nakaseomyces glabratus) [µg/mL]
CNC(=S)SCC(O)(Cn1cncn1)c1ccc(F)cc1F (racemic) | > 64 | > 64 | 4 (≈ 11.6 µM) | > 64 | 1 (≈ 2.9 µM) | 1 (≈ 2.9 µM) | 64 (≈ 186 µM) | 2 (≈ 5.81 µM)
CN(C(=S)SCC(O)(Cn1cncn1)c1ccc(F)cc1F)c1ccccc1 (racemic) | 32 (≈ 76.1 µM) | 2 (≈ 4.76 µM) | 2 (≈ 4.76 µM) | 64 (≈ 152 µM) | 0.25 (≈ 0.595 µM) | 0.5 (≈ 1.19 µM) | 1 (≈ 2.38 µM) | 0.5 (≈ 1.19 µM)
OC(CSC(=S)N1CCN(c2cccc(F)c2)CC1)(Cn1cncn1)c1ccc(F)cc1F (racemic) | 0.5 (≈ 1.01 µM) | 4 (≈ 8.1 µM) | 0.5 (≈ 1.01 µM) | 8 (≈ 16.2 µM) | ≤ 0.125 | ≤ 0.125 | ≤ 0.125 | 0.25 (≈ 0.507 µM)
CN(C)C(=S)SCC(O)(Cn1cncn1)c1ccc(F)cc1F (racemic) | 0.5 (≈ 1.39 µM) | 2 (≈ 5.58 µM) | 0.5 (≈ 1.39 µM) | 8 (≈ 22.3 µM) | ≤ 0.125 | ≤ 0.125 | 0.5 (≈ 1.39 µM) | ≤ 0.125
OC(CSC(=S)N1CCN(c2ccccc2F)CC1)(Cn1cncn1)c1ccc(F)cc1F (racemic) | 2 (≈ 4.05 µM) | > 64 | 1 (≈ 2.03 µM) | > 64 | 0.5 (≈ 1.01 µM) | 0.5 (≈ 1.01 µM) | 0.5 (≈ 1.01 µM) | 0.5 (≈ 1.01 µM)
COc1cccc(N2CCN(C(=S)SCC(O)(Cn3cncn3)c3ccc(F)cc3F)CC2)c1 (racemic) | 0.5 (≈ 0.989 µM) | 4 (≈ 7.91 µM) | 1 (≈ 1.98 µM) | 16 (≈ 31.6 µM) | ≤ 0.125 | ≤ 0.125 | 0.25 (≈ 0.494 µM) | 0.25 (≈ 0.494 µM)
CCNC(=S)SCC(O)(Cn1cncn1)c1ccc(F)cc1F (racemic) | > 64 | > 64 | 4 (≈ 11.2 µM) | > 64 | 1 (≈ 2.79 µM) | 1 (≈ 2.79 µM) | 64 (≈ 179 µM) | 4 (≈ 11.2 µM)
OC(CSC(=S)N1CCN(c2ccc(F)cc2)CC1)(Cn1cncn1)c1ccc(F)cc1F (racemic) | 0.25 (≈ 0.507 µM) | 2 (≈ 4.05 µM) | 1 (≈ 2.03 µM) | 16 (≈ 32.4 µM) | ≤ 0.125 | 0.25 (≈ 0.507 µM) | ≤ 0.125 | 0.25 (≈ 0.507 µM)
OCCN(CCO)C(=S)SCC(O)(Cn1cncn1)c1ccc(F)cc1F (racemic) | > 64 | 1 (≈ 2.39 µM) | 1 (≈ 2.39 µM) | > 64 | 8 (≈ 19.1 µM) | 8 (≈ 19.1 µM) | 64 (≈ 153 µM) | 0.25 (≈ 0.597 µM)
COc1ccc(N2CCN(C(=S)SCC(O)(Cn3cncn3)c3ccc(F)cc3F)CC2)cc1 (racemic) | 0.25 (≈ 0.494 µM) | 2 (≈ 3.96 µM) | 1 (≈ 1.98 µM) | 8 (≈ 15.8 µM) | ≤ 0.125 | ≤ 0.125 | 0.25 (≈ 0.494 µM) | ≤ 0.125
OC(CSC(=S)N1CCN(Cc2ccccc2)CC1)(Cn1cncn1)c1ccc(F)cc1F (racemic) | 1 (≈ 2.04 µM) | 2 (≈ 4.08 µM) | 2 (≈ 4.08 µM) | 4 (≈ 8.17 µM) | ≤ 0.125 | ≤ 0.125 | 0.25 (≈ 0.511 µM) | 0.25 (≈ 0.511 µM)
Cc1cccc(N2CCN(C(=S)SCC(O)(Cn3cncn3)c3ccc(F)cc3F)CC2)c1C (racemic) | 1 (≈ 1.99 µM) | > 64 | 1 (≈ 1.99 µM) | > 64 | 0.5 (≈ 0.993 µM) | 0.5 (≈ 0.993 µM) | 0.5 (≈ 0.993 µM) | 0.5 (≈ 0.993 µM)
C=CCNC(=S)SCC(O)(Cn1cncn1)c1ccc(F)cc1F (racemic) | 2 (≈ 5.4 µM) | 64 (≈ 173 µM) | 64 (≈ 173 µM) | > 64 | 0.5 (≈ 1.35 µM) | 0.5 (≈ 1.35 µM) | 64 (≈ 173 µM) | 4 (≈ 10.8 µM)
CN(Cc1ccccc1)C(=S)SCC(O)(Cn1cncn1)c1ccc(F)cc1F (racemic) | 0.5 (≈ 1.15 µM) | > 64 | > 64 | 16 (≈ 36.8 µM) | 0.25 (≈ 0.575 µM) | 0.25 (≈ 0.575 µM) | 1 (≈ 2.3 µM) | 0.25 (≈ 0.575 µM)
CC(=O)N1CCN(c2ccc(OCC3COC(Cn4ccnc4)(c4ccc(Cl)cc4Cl)O3)cc2)CC1 (stereo unspecified) [KETOCONAZOLE] | 0.5 (≈ 0.941 µM) | 1 (≈ 1.88 µM) | 0.125 (≈ 0.235 µM) | 4 (≈ 7.53 µM) | 0.25 (≈ 0.47 µM) | ≤ 0.125 | 0.25 (≈ 0.47 µM) | 0.5 (≈ 0.941 µM)
OC(CSC(=S)N1CCN(c2cccc(C(F)(F)F)c2)CC1)(Cn1cncn1)c1ccc(F)cc1F (racemic) | 0.5 (≈ 0.92 µM) | 2 (≈ 3.68 µM) | 1 (≈ 1.84 µM) | 8 (≈ 14.7 µM) | ≤ 0.125 | ≤ 0.125 | 0.25 (≈ 0.46 µM) | 0.25 (≈ 0.46 µM)
OC(CSC(=S)NC1CCCCC1)(Cn1cncn1)c1ccc(F)cc1F (racemic) | 64 (≈ 155 µM) | > 64 | 64 (≈ 155 µM) | > 64 | 0.25 (≈ 0.606 µM) | 0.25 (≈ 0.606 µM) | 16 (≈ 38.8 µM) | 4 (≈ 9.7 µM)
